Experimental data as given in EP0167553B1, “NEW THERAPEUTICAL APPLICATION OF AN INDANE DIONE DERIVATIVE AND PHARMACEUTICAL COMPOSITIONS INTENDED TO SAID UTILIZATION” (priority 1983, dated 1985).

Experiment: Earlier anti-inflammatory test
Assay type: in vivo
Conditions: dose de 250 mg/kg

COc1ccc(C(=O)CC2(O)C(=O)c3ccccc3C2=O)cc1OC [Produit de l'invention, 2-[(3,4-dimethoxybenzoyl)methyl] 2-hydroxy 1,3-dioxo indane]
effet anti-inflammatoire: effet liminaire anti-inflammatoire
